How the values were obtained:
galectin-3 = target: T1, galectin-3 (Homo sapiens, UniProt P17931); assay: competitive fluorescence polarization assay, galectin-3; settings: Kd and SEM from 3–6 single point measurements, > values estimated, no apparent binding at highest concentration, read-out: Dissociation constants, Galectin-3
T1 construct: made in house
Protocol: (§1) Affinities of 1c–1z for galectin-1, -3, -4C, -4N, -7, -8C, -8N, -9C, and -9N were measured using an established fluorescence polarization assay[57] with reported probes and conditions.[19] […]
(§2) Fluorescence polarization experiments
(§3) Human galectin-11 and galectin-32 were expressed and purified as earlier described. Fluorescence polarization experiments were performed on a PheraStarFS plate reader with software PHERAstar Mars version 2.10 R3 (BMG, Offenburg, Germany). Specific experimental conditions were a galectin-1 concentration of 0.5 µM together with the fluorescent probe (3,3’-dideoxy-3-[4-(fluorescein-5-yl-carbonylaminomethyl)-1H-1,2,3-triazol-1-yl]-3’-(3,5-di-methoxybenzamido)-1,1’-sulfanediyl-di-β-D-galactopyranoside 1 concentration of 20 nM and a galectin-3 concentration of 0.2 µM together with the fluorescent probe (3,3’-dideoxy-3-[4-(fluorescein-5-yl-carbonylaminomethyl)-1H-1,2,3- […]
(§4) triazol-1-yl]-3’-(3,5-di-methoxybenzamido)-1,1’-sulfanediyl-di-β-D-galactopyranoside) concentration of 20 nM, respectively. Inhibitors were dissolved in dimethylsulfoxide (analytical grade) to a concentration of 20 mM, diluted with PBS to 3–6 different concentrations, and tested in duplicate twice for galectin affinity using a competitive fluorescence polarization assay as earlier described.3 The highest inhibitor concentrations tested were 1 mM due to solubility limitations at higher concentration. Dissociation constants average and SEM were calculated from two to eight single point measurements showing between 20–80% inhibition. […]

galectin-4C = target: T2, galectin-4C (Homo sapiens, UniProt P56470); assay: competitive fluorescence polarization assay, galectin-4C; type: binding; settings: for Kd: fluorescence polarization, x/y cells = only two data points revealed inhibition, both shown, > values estimated, no apparent binding at highest concentration, read-out: Dissociation constants, Galectin-4C
T2 construct: made in house; host or cells: E. coli BL-21 (DE3)
T2 sequence (P56470 185-323): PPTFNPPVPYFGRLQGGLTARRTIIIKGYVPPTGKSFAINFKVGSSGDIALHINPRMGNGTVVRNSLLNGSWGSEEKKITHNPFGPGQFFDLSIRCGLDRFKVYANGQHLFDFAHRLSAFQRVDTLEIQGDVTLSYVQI
Protocol: Affinities of 1c–1z for galectin-1, -3, -4C, -4N, -7, -8C, -8N, -9C, and -9N were measured using an established fluorescence polarization assay[57] with reported probes and conditions.[19]
Recombinant human galectin-4 C-terminal carbohydrate recognition domain was expressed and purified as previously reported.[57,70] Briefly, BL-21 (DE3) E. coli cells containing galectin-4C (amino acid sequence 185–323) was expressed, lysed by sonication and purified by affinity chromatography on a lactosyl-Sepharose column. Galectin-4C protein was eluted using 50 mM β-lactose in PBS, pH 7.4. Galectin-4C was then further gel purified using a Superdex 200/60 column (GE Healthcare) previously equilibrated in PBS, pH 7.4. The peak fractions collected containing galectin-4C were pooled and concentrated to 6.5 mg mL^−1 using an AmiconUltra 3K molecular weight cut-off centrifugal concentrator (Millipore, Billerica, MA, USA) and used directly in crystallisation studies. […]
as §4

galectin-1 = target: T3, galectin-1 (Homo sapiens, UniProt P09382); assay: competitive fluorescence polarization assay, galectin-1; type: binding; settings: fluorescence polarization; Kd and SEM from 3–6 single point measurements; read-out: Dissociation constants, Galectin-1
T3 construct: made in house
Protocol: as §1, §2, §3, §4

galectin-4N = target: T4, galectin-4N (Homo sapiens, UniProt P56470); assay: competitive fluorescence polarization assay, galectin-4N; type: binding; settings: Kd and SEM from 3–6 single point measurements, read-out: Dissociation constants, Galectin-4N
T4 construct: called “N” for the N-terminal CRD and “C” for the C-terminal
T4 sequence (P56470 19-150 limits assumed): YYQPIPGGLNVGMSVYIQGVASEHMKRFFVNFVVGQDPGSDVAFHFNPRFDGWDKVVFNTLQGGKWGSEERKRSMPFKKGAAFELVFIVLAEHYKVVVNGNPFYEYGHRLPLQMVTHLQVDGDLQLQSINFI
Protocol: as §1, §4

T1 sequence (P17931 whole entry): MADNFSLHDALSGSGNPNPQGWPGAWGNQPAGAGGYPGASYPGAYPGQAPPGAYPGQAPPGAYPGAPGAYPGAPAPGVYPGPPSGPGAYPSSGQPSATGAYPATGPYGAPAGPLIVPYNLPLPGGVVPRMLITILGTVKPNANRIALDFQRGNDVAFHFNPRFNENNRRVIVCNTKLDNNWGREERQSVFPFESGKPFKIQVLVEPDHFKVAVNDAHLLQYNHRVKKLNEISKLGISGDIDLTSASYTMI
T3 sequence (P09382 whole entry): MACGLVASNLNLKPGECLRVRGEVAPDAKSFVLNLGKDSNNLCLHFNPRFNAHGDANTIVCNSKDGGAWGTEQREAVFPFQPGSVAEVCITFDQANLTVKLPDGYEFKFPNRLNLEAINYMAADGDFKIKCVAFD

Compound	Kd (galectin-3) [µM]	Kd (galectin-4C) [µM]	Kd (galectin-1) [µM]	Kd (galectin-4N) [µM]	fold stronger affinity for galectin-4C compared to galectin-1 and galectin-3 (galectin-4C; ratio of Kd) [fold]	galectin-4C selectivity over other galectins (galectin-4C; ratio of Kd)	fold better galectin-4C affinity compared to 1a–b (galectin-4C; effect of adding the C3 phenyltriazolyl) [fold]
OC[C@H]1O[C@@H](Cn2cc(-c3ccccc3)nn2)[C@H](O)[C@@H](n2cc(-c3ccccc3)nn2)[C@H]1O [Compound 24c, 1-((4-(1-Phenyl-1H-1,2,3-triazol-4-yl)-1,3-dideoxy-β-D-galactopyranosyl)methyl)-4-phenyl-1H-1,2,3-triazole]	90 ± 13	19 ± 2.9	140 ± 5	290 ± 32	–	–	–
OC[C@H]1O[C@@H](Cn2cc(-c3ccc(F)cc3)nn2)[C@H](O)[C@@H](n2cc(-c3ccccc3)nn2)[C@H]1O [Compound 24a]	200 ± 32	9.5 ± 1.3	220 ± 10	130 ± 20	20	twenty-onefold and up to thirty-sevenfold	–
OC[C@H]1O[C@@H](c2cn(-c3ccccc3F)nn2)[C@H](O)[C@@H](n2cc(-c3ccccc3)nn2)[C@H]1O [Compound 16a, 1,3-Dideoxy-1-(1-(2-fluorophenyl)-1H-1,2,3-triazol-4-yl)-3-(4-(phenyl)-1H-1,2,3-triazolyl)-β-D-galactopyranosyl]	34 ± 1	18 ± 2	280 ± 39	90 ± 17	–	–	–
OC[C@H]1O[C@@H](Cn2cc(-c3cc(F)c(F)c(F)c3)nn2)[C@H](O)[C@@H](n2cc(-c3ccccc3)nn2)[C@H]1O [Compound 24d]	91 ± 2	22 ± 2.8	240 ± 5	130 ± 23	–	–	–
OC[C@H]1O[C@@H](c2cn(-c3ccccn3)nn2)[C@H](O)[C@@H](n2cc(-c3ccccc3)nn2)[C@H]1O [Compound 16b, 1,3-Dideoxy-1-(1-(2-pyridyl)-1H-1,2,3-triazol-4-yl)-3-(4-(phenyl)-1H-1,2,3-triazolyl)-β-D-galactopyranosyl]	34 ± 3	9.6 ± 2.3	180 ± 1	240 ± 54	–	–	≤ 79

Source: article PMC12302229, “Synergy of triazolyl substituents at C1 and C3 of galactose for high-affinity and selective galectin-4C inhibition” (RSC Chemical Biology, 2025)
